The target in the test is T1, Neuropeptide Y receptor type 5 (Homo sapiens, UniProt Q15761).
T1 sequence (Q15761 whole entry): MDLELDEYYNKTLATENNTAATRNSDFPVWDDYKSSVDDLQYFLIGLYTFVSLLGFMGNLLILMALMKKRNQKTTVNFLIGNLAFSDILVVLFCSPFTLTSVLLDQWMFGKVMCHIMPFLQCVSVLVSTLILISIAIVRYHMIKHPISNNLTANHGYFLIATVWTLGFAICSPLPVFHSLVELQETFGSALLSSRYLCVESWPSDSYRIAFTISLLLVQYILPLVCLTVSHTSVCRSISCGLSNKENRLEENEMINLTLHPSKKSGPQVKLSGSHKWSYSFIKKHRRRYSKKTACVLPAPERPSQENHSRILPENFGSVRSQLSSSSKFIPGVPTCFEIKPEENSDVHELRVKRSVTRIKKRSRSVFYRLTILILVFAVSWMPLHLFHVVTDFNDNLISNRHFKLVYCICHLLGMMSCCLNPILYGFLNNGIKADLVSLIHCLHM
Put plainly: Displacement of [125I]PYY from human recombinant neuropeptide Y5 receptor expressed in thymidine kinase deficient […] cells. On the technique in general: Loss of bound radioactivity is the signal in a displacement assay; it reports binding, not function.

The Ki is a measure of affinity in units of concentration, obtained from inhibition or displacement.

With `COc1cccc2c1C(C1C(=O)CC(C)(C)CC1=O)C1=C(CC(C)(C)CC1=O)O2` (stereo unspecified) [9-(2-Hydroxy-4,4-dimethyl-6-oxocyclohexyl)-8-methoxy-3,3-dimethyl-2,3,4,9-tetrahydro-1H-xanthen-1-one], the inhibitory constant (Ki) was over 1 µM.
